According to ChEMBL document CHEMBL1201862, “PubChem BioAssay data set” (2004):
Activity calls are given as the source filed them.

What was measured:
Beta-lactamase [1] = molecular target: Beta-lactamase (Salmonella choleraesuis (strain SC-B67), UniProt Q5J463)
Beta-lactamase [2] = molecular target: Beta-lactamase (Pseudomonas aeruginosa, UniProt Q79MP6);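 also: biochemical dose-response test of metallo-beta-lactamase enzyme inhibition, read out by epi-absorbance; purified recombinant IMP-1 metallo-beta-lactamase with nitrocefin as substrate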
Chain of Beta-lactamase (Pseudomonas aeruginosa, UniProt Q79MP6) (Q79MP6 whole entry): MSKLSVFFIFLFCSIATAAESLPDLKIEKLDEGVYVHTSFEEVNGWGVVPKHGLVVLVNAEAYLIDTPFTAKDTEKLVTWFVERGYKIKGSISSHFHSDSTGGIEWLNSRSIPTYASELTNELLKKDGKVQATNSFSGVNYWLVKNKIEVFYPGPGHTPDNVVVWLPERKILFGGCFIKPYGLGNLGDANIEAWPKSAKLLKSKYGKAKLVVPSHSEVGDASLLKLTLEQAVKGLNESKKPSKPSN

Beta Lactamase = Beta Lactamase (Pseudomonas aeruginosa, UniProt Q932Y6);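 also: confirmatory high-throughput screen measuring VIM-2 metallo-beta-lactamase inhibition by epi-absorbance in dose response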
Chain of Beta Lactamase (Q932Y6 whole entry, the tested form may be a part): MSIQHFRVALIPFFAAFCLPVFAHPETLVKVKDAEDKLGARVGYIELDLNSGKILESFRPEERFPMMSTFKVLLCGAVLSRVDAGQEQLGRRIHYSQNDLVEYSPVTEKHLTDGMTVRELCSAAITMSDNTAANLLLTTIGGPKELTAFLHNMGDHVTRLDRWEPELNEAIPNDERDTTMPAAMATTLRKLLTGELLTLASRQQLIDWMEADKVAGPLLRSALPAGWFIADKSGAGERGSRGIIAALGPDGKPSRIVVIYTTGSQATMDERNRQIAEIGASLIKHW

[3] = molecular target: T1, Sentrin-specific protease 1 (Homo sapiens, UniProt Q9P0U3); test: Dose response confirmation of small molecule inhibitors of the catalytic domain of the SUMO protease, SENP1 in a FRET assay.; format: functional; settings: read-out: IC50_Mean
T1 sequence (Q9P0U3 whole entry): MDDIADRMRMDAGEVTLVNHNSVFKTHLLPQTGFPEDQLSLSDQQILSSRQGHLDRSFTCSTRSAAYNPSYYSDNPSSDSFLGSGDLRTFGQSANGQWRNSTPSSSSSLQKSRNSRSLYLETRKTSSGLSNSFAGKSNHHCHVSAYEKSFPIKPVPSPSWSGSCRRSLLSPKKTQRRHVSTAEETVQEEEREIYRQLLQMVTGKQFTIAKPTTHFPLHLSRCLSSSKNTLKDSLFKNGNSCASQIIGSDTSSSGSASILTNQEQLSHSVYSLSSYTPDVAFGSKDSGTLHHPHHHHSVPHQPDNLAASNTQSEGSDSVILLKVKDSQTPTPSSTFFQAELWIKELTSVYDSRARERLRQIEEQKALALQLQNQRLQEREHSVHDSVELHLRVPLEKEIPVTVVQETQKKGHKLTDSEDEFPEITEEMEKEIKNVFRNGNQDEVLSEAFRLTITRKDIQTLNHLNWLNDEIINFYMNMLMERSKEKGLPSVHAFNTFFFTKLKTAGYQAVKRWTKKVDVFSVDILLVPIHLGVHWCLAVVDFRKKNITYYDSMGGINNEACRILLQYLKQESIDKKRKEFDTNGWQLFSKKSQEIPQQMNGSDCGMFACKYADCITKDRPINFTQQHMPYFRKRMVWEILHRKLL

[4] = molecular target: T1, Sentrin-specific protease 1; test: potency of human SENP1 inhibitors, dose response, biochemical, kinetic FRET (AID 651697); format: functional; settings: read-out: IC50_Mean
[5] = molecular target: ATP-dependent translocase ABCB1 (Homo sapiens, UniProt P08183); test: ABCB1 efflux pump inhibitor potency, dose response, Jurkat-DNR cells, JC-1, flow cytometry (AID 1689); format: functional
Chain of ATP-dependent translocase ABCB1 (P08183 whole entry): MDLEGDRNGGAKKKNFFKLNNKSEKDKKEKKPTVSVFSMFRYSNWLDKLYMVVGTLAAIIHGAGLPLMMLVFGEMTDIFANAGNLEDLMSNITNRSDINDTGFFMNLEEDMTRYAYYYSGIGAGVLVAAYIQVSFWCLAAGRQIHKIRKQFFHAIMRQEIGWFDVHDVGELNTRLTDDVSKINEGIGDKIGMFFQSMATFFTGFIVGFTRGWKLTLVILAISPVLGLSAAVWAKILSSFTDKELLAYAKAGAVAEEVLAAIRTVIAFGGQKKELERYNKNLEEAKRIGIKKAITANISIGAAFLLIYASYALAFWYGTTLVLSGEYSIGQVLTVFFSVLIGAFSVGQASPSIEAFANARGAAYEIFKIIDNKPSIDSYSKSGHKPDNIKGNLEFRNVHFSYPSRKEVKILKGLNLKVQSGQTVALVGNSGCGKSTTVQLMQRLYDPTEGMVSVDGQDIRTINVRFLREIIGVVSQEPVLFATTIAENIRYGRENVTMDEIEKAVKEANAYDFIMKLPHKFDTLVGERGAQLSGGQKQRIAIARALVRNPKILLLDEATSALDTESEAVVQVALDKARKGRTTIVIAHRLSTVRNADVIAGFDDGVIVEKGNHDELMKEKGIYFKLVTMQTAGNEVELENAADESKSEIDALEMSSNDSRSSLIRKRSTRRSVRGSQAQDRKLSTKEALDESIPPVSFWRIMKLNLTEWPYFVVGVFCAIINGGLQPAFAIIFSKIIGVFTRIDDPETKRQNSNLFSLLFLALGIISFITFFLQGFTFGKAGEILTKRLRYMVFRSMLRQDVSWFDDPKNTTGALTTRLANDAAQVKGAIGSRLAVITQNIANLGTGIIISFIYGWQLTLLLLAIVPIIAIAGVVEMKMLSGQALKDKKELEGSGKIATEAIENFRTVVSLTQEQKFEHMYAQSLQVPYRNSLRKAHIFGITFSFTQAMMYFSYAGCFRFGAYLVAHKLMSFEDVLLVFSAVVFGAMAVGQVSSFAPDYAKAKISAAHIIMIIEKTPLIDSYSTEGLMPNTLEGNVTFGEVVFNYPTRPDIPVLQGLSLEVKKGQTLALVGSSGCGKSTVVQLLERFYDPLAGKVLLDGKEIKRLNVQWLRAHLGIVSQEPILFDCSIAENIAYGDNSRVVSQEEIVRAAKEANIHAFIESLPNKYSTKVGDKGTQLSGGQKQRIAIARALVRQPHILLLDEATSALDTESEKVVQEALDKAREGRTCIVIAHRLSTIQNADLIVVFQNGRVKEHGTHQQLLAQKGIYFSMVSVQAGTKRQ

[6] = molecular target: Broad substrate specificity ATP-binding cassette transporter ABCG2 (Homo sapiens, UniProt Q9UNQ0); test: ABCG2 efflux pump inhibitors, dose response, Ig-MXP3 cells, flow cytometry (AID 1690); format: functional
Chain of Broad substrate specificity ATP-binding cassette transporter ABCG2 (Q9UNQ0 whole entry): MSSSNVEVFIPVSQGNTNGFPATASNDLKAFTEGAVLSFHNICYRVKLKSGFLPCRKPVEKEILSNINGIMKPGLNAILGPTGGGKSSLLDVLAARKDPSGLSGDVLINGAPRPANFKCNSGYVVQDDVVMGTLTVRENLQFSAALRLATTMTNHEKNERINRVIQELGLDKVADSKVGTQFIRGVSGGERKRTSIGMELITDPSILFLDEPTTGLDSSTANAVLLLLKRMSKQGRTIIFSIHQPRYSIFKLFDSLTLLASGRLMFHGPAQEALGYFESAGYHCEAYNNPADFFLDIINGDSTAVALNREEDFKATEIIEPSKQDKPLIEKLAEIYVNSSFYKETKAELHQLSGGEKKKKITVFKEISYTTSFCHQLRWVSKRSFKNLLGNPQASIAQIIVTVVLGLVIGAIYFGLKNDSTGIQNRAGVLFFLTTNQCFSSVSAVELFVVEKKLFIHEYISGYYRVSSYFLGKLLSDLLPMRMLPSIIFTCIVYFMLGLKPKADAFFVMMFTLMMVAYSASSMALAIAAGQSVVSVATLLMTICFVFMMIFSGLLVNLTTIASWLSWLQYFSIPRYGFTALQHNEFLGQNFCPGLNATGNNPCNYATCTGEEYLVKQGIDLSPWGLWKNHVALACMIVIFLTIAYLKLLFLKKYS

[7] = molecular target: Adenosylmethionine-8-amino-7-oxononanoate aminotransferase (Mycobacterium tuberculosis, UniProt P9WQ81); test: Mycobacterium tuberculosis BioA enzyme inhibitor Measured in Biochemical System Using Plate Reader - 2163-02_Inhibitor_Dose_CherryPick_Activity.; format: functional, Mycobacterium tuberculosis UT205
Chain of Adenosylmethionine-8-amino-7-oxononanoate aminotransferase (P9WQ81 whole entry): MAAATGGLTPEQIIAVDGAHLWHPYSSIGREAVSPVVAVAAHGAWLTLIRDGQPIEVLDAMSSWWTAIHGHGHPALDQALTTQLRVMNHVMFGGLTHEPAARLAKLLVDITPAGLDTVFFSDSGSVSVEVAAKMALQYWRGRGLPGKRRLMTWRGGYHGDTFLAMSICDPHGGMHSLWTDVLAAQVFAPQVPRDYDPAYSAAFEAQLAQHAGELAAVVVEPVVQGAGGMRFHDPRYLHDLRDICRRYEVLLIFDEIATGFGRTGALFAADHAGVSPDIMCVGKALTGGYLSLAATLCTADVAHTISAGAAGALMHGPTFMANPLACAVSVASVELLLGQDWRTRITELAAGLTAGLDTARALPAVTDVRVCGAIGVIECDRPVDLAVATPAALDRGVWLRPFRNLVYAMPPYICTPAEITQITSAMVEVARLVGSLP

Interleukin-8 [8] = molecular target: T2, Interleukin-8 (Homo sapiens, UniProt P10145); test: Dose Response confirmation of uHTS small molecule hits for cystic fibrosis induced NFkb Inhibitors in a PAF-induced IL8 counterscreen.; format: functional; settings: read-out: IC50_Mean
T2 sequence (P10145 whole entry): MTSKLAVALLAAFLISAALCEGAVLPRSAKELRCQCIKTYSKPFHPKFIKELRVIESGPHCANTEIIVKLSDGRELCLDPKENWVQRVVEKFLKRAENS

Interleukin-8 [9] = molecular target: T2, Interleukin-8; test: Dose Response confirmation of uHTS small molecule hits for cystic fibrosis induced NFkb Inhibitors in a TNFa-induced IL8 counterscreen.; format: functional; settings: read-out: IC50_Mean
[10] = molecular target: T3, Mitochondrial peptide methionine sulfoxide reductase (Bos taurus, UniProt P54149); format: functional;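 also: absorbance read-out, biochemical high-throughput dose-response screen for MsrA inhibitors, confirmatory; recombinant bovine MsrA coupled to E. coli TrxB with NADPH and selenocystamine; potency is for inhibitors of MsrA activity on DMSO substrate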
T3 sequence (P54149 whole entry): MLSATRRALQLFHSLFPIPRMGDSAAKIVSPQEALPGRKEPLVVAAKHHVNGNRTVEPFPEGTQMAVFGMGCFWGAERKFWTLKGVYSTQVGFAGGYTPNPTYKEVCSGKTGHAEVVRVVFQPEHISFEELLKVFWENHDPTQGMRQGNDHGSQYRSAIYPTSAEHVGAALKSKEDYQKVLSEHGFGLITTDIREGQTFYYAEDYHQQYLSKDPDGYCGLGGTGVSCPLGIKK

Chain of Beta-lactamase (Salmonella choleraesuis (strain SC-B67), UniProt Q5J463) (Q5J463 whole entry): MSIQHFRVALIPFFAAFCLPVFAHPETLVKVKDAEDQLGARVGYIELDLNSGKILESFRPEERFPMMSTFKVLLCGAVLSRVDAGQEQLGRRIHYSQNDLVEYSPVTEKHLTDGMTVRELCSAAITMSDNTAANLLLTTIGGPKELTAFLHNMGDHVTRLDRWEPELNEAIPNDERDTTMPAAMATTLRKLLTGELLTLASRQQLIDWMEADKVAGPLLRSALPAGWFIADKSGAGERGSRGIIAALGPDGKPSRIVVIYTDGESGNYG

For `O=C1C2C(c3ccccc3)C=CC(c3ccccc3)C2C(=O)N1c1ccccn1` (stereo unspecified), the IC50 (Beta-lactamase [1]) was > 59.6 µM (inactive), the IC50 (Beta-lactamase [2]) was 11.5 µM (inactive) and the IC50 (Beta Lactamase) was 59.6 µM (inactive). For the same molecule, the IC50 [3] was 7.9 µM (active) and the IC50 [4] was 10.8 µM (active).

For `COc1ccc(/C=N/NC(=O)c2ccccc2F)cc1CN1CCN(c2ccc(F)cc2)CC1`, the EC50 [5] was 3.08 µM (active) and the EC50 [6] was 4.07 µM (active).

With `COc1ccc(-c2ccc3c(c2)C2CC3CCN2)cc1` (stereo unspecified) the AC50 [7] was 1.07 µM (active).

With `CNc1ccc2ncc(-c3cccc(C(=O)N(C)C)c3)n2n1` the IC50 (Interleukin-8 [8]) was 2.04 µM (active) and the IC50 (Interleukin-8 [9]) was > 79 µM (inactive).

`O=C(O)c1cccc(N/N=C/c2sc(N3CCOCC3)nc2-c2ccccc2)c1` was tested, and the IC50 [10] was 155 µM (inactive).
